Biological target: Wild type FGFR2 (Homo sapiens (Human), UniProt P21802)
Assay: FGFR2 kinase assay (fluorescence-based microfluidic mobility shift assay)
Format: biochemical
Conditions: wild type FGFR2 0.06 nM, 100 μM ATP, 80 minutes at room temperature; class symbols

Wild type FGFR2, sequence (P21802 22-821): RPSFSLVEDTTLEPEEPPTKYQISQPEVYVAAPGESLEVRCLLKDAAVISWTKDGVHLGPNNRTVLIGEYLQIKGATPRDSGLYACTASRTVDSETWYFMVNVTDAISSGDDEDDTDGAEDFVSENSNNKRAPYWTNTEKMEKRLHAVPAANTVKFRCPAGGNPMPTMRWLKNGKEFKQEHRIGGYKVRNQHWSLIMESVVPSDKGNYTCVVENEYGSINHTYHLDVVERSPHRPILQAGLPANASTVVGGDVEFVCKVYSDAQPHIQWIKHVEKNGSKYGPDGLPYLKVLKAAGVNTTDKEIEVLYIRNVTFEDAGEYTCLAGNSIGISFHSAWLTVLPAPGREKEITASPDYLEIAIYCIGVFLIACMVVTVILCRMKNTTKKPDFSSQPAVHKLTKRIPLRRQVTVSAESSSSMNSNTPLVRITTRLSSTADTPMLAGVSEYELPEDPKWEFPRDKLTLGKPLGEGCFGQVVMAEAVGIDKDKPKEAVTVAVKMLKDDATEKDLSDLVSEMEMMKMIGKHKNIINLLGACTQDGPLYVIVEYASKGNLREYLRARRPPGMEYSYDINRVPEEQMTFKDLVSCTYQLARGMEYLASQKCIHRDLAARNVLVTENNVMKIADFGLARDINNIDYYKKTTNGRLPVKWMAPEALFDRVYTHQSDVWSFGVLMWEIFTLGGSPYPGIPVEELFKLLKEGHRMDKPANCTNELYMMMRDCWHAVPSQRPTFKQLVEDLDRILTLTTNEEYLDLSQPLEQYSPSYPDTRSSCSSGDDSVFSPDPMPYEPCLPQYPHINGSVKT

SMILES | IC50 [nM]
C=CC(=O)N1C[C@@H](n2nc(C#Cc3c(Cl)cc4c(ncn4CC)c3F)c(C(N)=O)c2NC)C[C@@H]1COC [Example 99, 3-[2-(6-Chloro-1-ethyl-4-fluoro-1,3-benzodiazol-5-yl)ethynyl]-1-[(3S,5R)-5-(methoxymethyl)-1-(prop-2-enoyl)pyrrolidin-3-yl]-5-(methylamino)pyrazole-4-carboxamide] | ≤ 100
C=CC(=O)N1CC[C@H](n2nc(C#Cc3cc4ncn(C5CC5)c4cc3F)c(C(N)=O)c2NC)C1 [Example 136, 3-[2-(1-Cyclopropyl-6-fluoro-1,3-benzodiazol-5-yl)ethynyl]-5-(methylamino)-1-[(3S)-1-(prop-2-enoyl)pyrrolidin-3-yl]pyrazole-4-carboxamide] | ≤ 100
C=CC(=O)N1C[C@@H](n2nc(C#Cc3cc(OC)c4c(C#N)cnn4c3)c(C(N)=O)c2NC)C[C@@H]1COC [Example 270, 1-((3S,5R)-1-acryloyl-5-(methoxymethyl)pyrrolidin-3-yl)-3-((3-cyano-4-methoxypyrazolo[1,5-a]pyridin-6-yl)ethynyl)-5-(methylamino)-1H-pyrazole-4-carboxamide] | ≤ 100
C=CC(=O)N1C[C@@H](n2nc(C#Cc3c(F)cc4c(ncn4CC)c3F)c(C(N)=O)c2NC)C[C@@H]1COC [Example 29, 1-((3S,5R)-1-acryloyl-5-(methoxymethyl)pyrrolidin-3-yl)-3-((1-ethyl-4,6-difluoro-1H-benzo[d]imidazol-5-yl)ethynyl)-5-(methylamino)-1H-pyrazole-4-carboxamide] | ≤ 100
C=CC(=O)N1C[C@@H](n2nc(C#Cc3cc4nc(C)n(C5CC5)c4cc3F)c(C(N)=O)c2N)C[C@@H]1[C@H](C)O [Example 247, 5-Amino-3-[2-(1-cyclopropyl-6-fluoro-2-methyl-1,3-benzodiazol-5-yl)ethynyl]-1-[(3S,5R)-5-[(1S)-1-hydroxyethyl]-1-(prop-2-enoyl)pyrrolidin-3-yl]pyrazole-4-carboxamide] | ≤ 100
C=CC(=O)N1C[C@@H](n2nc(C#Cc3ccc4cnoc4c3)c(C(N)=O)c2NC)CC1COC (stereo in doubt) [Example 26, 1-((3S,5S)-1-acryloyl-5-(methoxymethyl)pyrrolidin-3-yl)-3-(benzo[d]isoxazol-6-ylethynyl)-5-(methylamino)-1H-pyrazole-4-carboxamide] | 100 to 1000
C=CC(=O)N1CC[C@H](n2nc(C#Cc3cc4ncn(C)c4c(F)c3Cl)c(C(N)=O)c2NC)C1 [Example 142, 3-[2-(6-Chloro-7-fluoro-1-methyl-1,3-benzodiazol-5-yl)ethynyl]-5-(methylamino)-1-[(3S)-1-(prop-2-enoyl)pyrrolidin-3-yl]pyrazole-4-carboxamide] | ≤ 100
C=CC(=O)N1C[C@@H](n2nc(C#Cc3cc4nncc(C)c4cc3Cl)c(C(N)=O)c2NC)C[C@@H]1COC [Example 268, 1-((3S,5R)-1-acryloyl-5-(methoxymethyl)pyrrolidin-3-yl)-3-((6-chloro-4-methylcinnolin-7-yl)ethynyl)-5-(methylamino)-1H-pyrazole-4-carboxamide] | ≤ 100
C=CC(=O)N1C[C@@H](n2nc(C#Cc3cc4ncn(CC)c4cc3F)c(C(N)=O)c2NC)C[C@@H]1COC(F)(F)F [Example 80, 3-[2-(1-Ethyl-6-fluoro-1,3-benzodiazol-5-yl)ethynyl]-5-(methylamino)-1-[(3S,5R)-1-(prop-2-enoyl)-5-[(trifluoromethoxy)methyl]pyrrolidin-3-yl]pyrazole-4-carboxamide] | ≤ 100
C=CC(=O)N1CC[C@H](n2nc(C#Cc3c(F)cc4c(ncn4CC)c3F)c(C(N)=O)c2NCCO)C1 [Example 123, 3-[2-(1-Ethyl-4,6-difluoro-1,3-benzodiazol-5-yl)ethynyl]-5-[(2-hydroxyethyl)amino]-1-[(3S)-1-(prop-2-enoyl)pyrrolidin-3-yl]pyrazole-4-carboxamide] | ≤ 100
CNc1c(C(N)=O)c(C#Cc2cc3nc(C)n(C4CC4)c3cc2F)nn1[C@H]1C[C@H](COC)N(C(=O)C#CC(C)(C)O)C1 [Example 227, 3-[2-(1-Cyclopropyl-6-fluoro-2-methyl-1,3-benzodiazol-5-yl)ethynyl]-1-[(3S,5R)-1-(4-hydroxy-4-methylpent-2-ynoyl)-5-(methoxymethyl)pyrrolidin-3-yl]-5 (methylamino)pyrazole-4-carboxamide] | ≤ 100
C=CC(=O)N1C[C@@H](n2nc(C#Cc3cc4ncn(C5CC5)c4cc3F)c(C(N)=O)c2NC)C[C@H]1CF [Example 180, 3-[2-(1-Cyclopropyl-6-fluoro-1,3-benzodiazol-5-yl)ethynyl]-1-[(3S,5S)-5-(fluoromethyl)-1-(prop-2-enoyl)pyrrolidin-3-yl]-5-(methylamino)pyrazole-4-carboxamide] | ≤ 100
C=CC(=O)N1C[C@@H](n2nc(C#Cc3cc4nc(C)n(C5CC5)c4cc3F)c(C(N)=O)c2N)C[C@@H]1[C@@H](C)O [Example 246] | ≤ 100
CC#CC(=O)N1C[C@@H](n2nc(C#Cc3cc4ncn(C5CC5)c4cc3F)c(C(N)=O)c2NC)C[C@@H]1COC [Example 183, 1-((3S,5R)-1-(But-2-ynoyl)-5-(methoxymethyl)pyrrolidin-3-yl)-3-((1-cyclopropyl-6-fluoro-1H-benzo[d]imidazol-5-yl)ethynyl)-5-(methylamino)-1H-pyrazole-4-carboxamide] | ≤ 100
C=CC(=O)N1CC(n2nc(C#Cc3cc4ncn(C5CC5)c4cc3F)c(C(N)=O)c2NC)C1 [Example 175, 3-[2-(1-cyclopropyl-6-fluoro-1,3-benzodiazol-5-yl)ethynyl]-5-(methylamino)-1-[1-(prop-2-enoyl)azetidin-3-yl]pyrazole-4-carboxamide] | ≤ 100

The next lines start with the values.

IC50 [nM] | SMILES
≤ 100 | C=CC(=O)N1C[C@@H](n2nc(C#Cc3ccc4c(c3)ncn4C3CC3)c(C(N)=O)c2NC)C[C@@H]1COC(F)F [Example 155, 3-[2-(1-Cyclopropyl-1,3-benzodiazol-5-yl)ethynyl]-1-[(3S,5R)-5-[(difluoromethoxy)methyl]-1-(prop-2-enoyl)pyrrolidin-3-yl]-5-(methylamino)pyrazole-4-carboxamide]
≤ 100 | C=CC(=O)N1C[C@@H](n2nc(C#Cc3ccc4ncc(C)nc4c3)c(C(N)=O)c2NC)C[C@@H]1COC [Example 72, 1-((3S,5R)-1-Acryloyl-5-(methoxymethyl)pyrrolidin-3-yl)-5-(methylamino)-3-((3-methylquinoxalin-6-yl)ethynyl)-1H-pyrazole-4-carboxamide]
≤ 100 | C=CC(=O)N1C[C@@H](n2nc(C#Cc3ccc4nc(C)cnc4c3)c(C(N)=O)c2NC)C[C@@H]1COC [Example 69, 1-((3S,5R)-1-Acryloyl-5-(methoxymethyl)pyrrolidin-3-yl)-5-(methylamino)-3-((2-methylquinoxalin-6-yl)ethynyl)-1H-pyrazole-4-carboxamide]
≤ 100 | C=CC(=O)N1C[C@@H](n2nc(C#Cc3cc4ncoc4cc3F)c(C(N)=O)c2NC)C[C@@H]1COC [Example 115, 3-[2-(6-Fluoro-1,3-benzoxazol-5-yl)ethynyl]-1-[(3S,5R)-5-(methoxymethyl)-1-(prop-2-enoyl)pyrrolidin-3-yl]-5-(methylamino)pyrazole-4-carboxamide]
≤ 100 | CNc1c(C(N)=O)c(C#Cc2cc3nc(C)n(C4CC4)c3cc2Cl)nn1[C@H]1C[C@H](COC)N(C(=O)C#CC(C)(C)O)C1 [Example 228, 3-[2-(6-Chloro-1-cyclopropyl-2-methyl-1,3-benzodiazol-5-yl)ethynyl]-1-[(3S,5R)-1-(4-hydroxy-4-methylpent-2-ynoyl)-5-(methoxymethyl)pyrrolidin-3-yl]-5-(methylamino)pyrazole-4-carboxamide]
≤ 100 | C=CC(=O)N1C[C@@H](n2nc(C#Cc3cc4ncc(C(F)F)cc4cc3F)c(C(N)=O)c2NC)C[C@@H]1COC [Example 273, 3-{2-[3-(Difluoromethyl)-6-fluoroquinolin-7-yl]ethynyl}-1-[(3S,5R)-5-(methoxymethyl)-1-(prop-2-enoyl)pyrrolidin-3-yl]-5-(methylamino)pyrazole-4-carboxamide]
≤ 100 | C=CC(=O)N1C[C@@H](n2nc(C#Cc3ccc4ccc(C)nc4c3)c(C(N)=O)c2NC)C[C@@H]1COC [Example 83, 1-[(3S,5R)-5-(Methoxymethyl)-1-(prop-2-enoyl)pyrrolidin-3-yl]-5-(methylamino)-3-[2-(2-methylquinolin-7-yl)ethynyl]pyrazole-4-carboxamide]
≤ 100 | C=CC(=O)N1C[C@@H](n2nc(C#Cc3cc4nc(C5CC5)n(C)c4cc3F)c(C(N)=O)c2NC)C[C@@H]1COC [Example 62, 3-[2-(2-Cyclopropyl-6-fluoro-1-methyl-1,3-benzodiazol-5-yl)ethynyl]-1-[(3S,5R)-5-(methoxymethyl)-1-(prop-2-enoyl)pyrrolidin-3-yl]-5-(methylamino)pyrazole-4-carboxamide]
≤ 100 | C=CC(=O)N1C[C@@H](n2nc(C#Cc3cc4nc(C)[nH]c4cc3F)c(C(N)=O)c2NC)C[C@@H]1COC [Example 91, 3-[2-(6-Fluoro-2-methyl-1H-1,3-benzodiazol-5-yl)ethynyl]-1-[(3S,5R)-5-(methoxymethyl)-1-(prop-2-enoyl)pyrrolidin-3-yl]-5-(methylamino)pyrazole-4-carboxamide]
≤ 100 | C=CC(=O)N1C[C@@H](n2nc(C#Cc3cc4ncn(C5CC5)c4cc3F)c(C(N)=O)c2NCC)C[C@@H]1COC [Example 205, 1-((3S,5R)-1-Acryloyl-5-(methoxymethyl)pyrrolidin-3-yl)-3-((1-cyclopropyl-6-fluoro-1H-benzo[d]imidazol-5-yl)ethynyl)-5-(ethylamino)-1H-pyrazole-4-carboxamide]
≤ 100 | C=CC(=O)N1CC[C@H](n2nc(C#Cc3c(F)cc4c(ncn4CC)c3F)c(C(N)=O)c2NCCCN2CCOCC2)C1 [Example 120, 3-[2-(1-ethyl-4,6-difluoro-1,3-benzodiazol-5-yl)ethynyl]-5-[[3-(morpholin-4-yl)propyl]amino]-1-[(3S)-1-(prop-2-enoyl)pyrrolidin-3-yl]pyrazole-4-carboxamide]
≤ 100 | C=CC(=O)N1C[C@@H](n2nc(C#Cc3cc4nc[nH]c4cc3F)c(C(N)=O)c2NC)C[C@@H]1COC(F)(F)F [Example 86, 3-[2-(6-Fluoro-1H-1,3-benzodiazol-5-yl)ethynyl]-5-(methylamino)-1-[(3S,5R)-1-(prop-2-enoyl)-5-[(trifluoromethoxy)methyl]pyrrolidin-3-yl]pyrazole-4-carboxamide]

— patent US11345681B1, “Inhibitors of fibroblast growth factor receptor kinases” (Kinnate Biopharma Inc., priority 2020, dated 2022)
